System: cytochrome p450
Assay: PROD detection of cytochrome p450 activity in differentiated hepatocyte-like cells
Conditions: phenobarbital induction versus no induction, hepatocyte-like cells differentiated from hepatic progenitor cells

In the case of `CCC1(c2ccccc2)C(=O)NC(=O)NC1=O` [Phenobarbital], the “PROD activity of the differentiated cells” value is reported as “could improve the PROD activity” and the “PROD activity of the differentiated cells” value (listed as phenobarbital) is reported as “PROD activity was enhanced”.
